Results taken from patent publication US6737383B1, “Herbicidal oxadiazolidines” (priority 1999, dated 2004).

Key:
wild oat = assay: Test B pre/postemergence wild oat; type: in vivo, Avena fatua
In short: (§1)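 Herbicidal effect was estimated by eye on a ten-point control scale after plants spent twelve to sixteen days in a greenhouse following soil or foliar treatment. Foliar sprays targeted plants at one to four leaves; all doses were formulated in a non-phytotoxic solvent with surfactant.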

pigweed = assay: Test B pre/postemergence pigweed; type: in vivo, Amaranthus retroflexus
In short: as §1

duck salad = assay: Test B flood test duck salad; type: in vivo, Heteranthera limosa; conditions: Rate 125 g/ha; Postemergence section (flood test species); scale 0 to 10, 0 no effect, 10 complete control
In short: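 Read-out is a visual response score from 0 (no effect) to 10 (complete control), assigned by comparison with untreated controls. Treatment was applied at the 2-leaf stage, and plants stayed in the greenhouse for twelve to sixteen days before scoring.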

morningglory = assay: Test B pre/postemergence morningglory; type: in vivo, Ipomoea hederacea
In short: as §1

sugar beet = assay: Test B pre/postemergence sugar beet; type: in vivo, Beta vulgaris
In short: as §1

soybean = assay: Test B pre/postemergence soybean; type: in vivo, Glycine max
In short: as §1

giant foxtail = assay: Test B pre/postemergence giant foxtail; type: in vivo, Setaria faberii
In short: as §1

blackgrass = assay: Test B pre/postemergence blackgrass; type: in vivo, Alopecurus myosuroides
In short: as §1

bedstraw = assay: Test B pre/postemergence bedstraw; type: in vivo, Galium aparine
In short: as §1

crabgrass = assay: Test B pre/postemergence crabgrass; type: in vivo, Digitaria sanguinalis
In short: as §1

surinam grass = assay: Test B pre/postemergence surinam grass; type: in vivo, Brachiaria decumbens
In short: as §1

purple nutsedge = assay: Test B pre/postemergence purple nutsedge; type: in vivo, Cyperus rotundus
In short: as §1

cocklebur = assay: Test B pre/postemergence cocklebur; type: in vivo, Xanthium strumarium
In short: as §1

corn = assay: Test B pre/postemergence corn; type: in vivo, Zea mays
In short: as §1

[1] = Postemergence, Rate 62 g/ha, scale 0 to 10, 0 is no effect, 10 is complete control
[2] = Postemergence, Rate 250 g/ha, scale 0 to 10, 0 no effect, 10 complete control
[3] = Preemergence, Rate 125 g/ha, scale 0 to 10 (0 no effect, 10 complete control)
[4] = Preemergence, Rate 250 g/ha, scale of 0 to 10 where 0 is no effect and 10 is complete control
[5] = Preemergence, Rate 500 g/ha, scale 0 (no effect) to 10 (complete control)
[6] = Rate 125 g/ha, Postemergence, scale 0 to 10, 0 no effect, 10 complete control
[7] = Preemergence, Rate 62 g/ha, scale 0 to 10, 0 is no effect, 10 is complete control
[8] = Rate 500 g/ha, Postemergence, 0 to 10 scale (0 no effect, 10 complete control)
[9] = Preemergence, Rate 62 g/ha, scale of 0 to 10 where 0 is no effect and 10 is complete control
[10] = Preemergence, Rate 125 g/ha, 0 is no effect, 10 is complete control
[11] = Preemergence, Rate 250 g/ha, scale 0 to 10, 0 is no effect, 10 is complete control
[12] = Preemergence, Rate 500 g/ha, scale 0 to 10 (0 no effect, 10 complete control)
[13] = Rate 250 g/ha, Postemergence, scale 0 to 10, 0 is no effect, 10 is complete control
[14] = Rate 500 g/ha, Postemergence, scale 0 to 10
[15] = Postemergence, Rate 125 g/ha, scale of 0 to 10 where 0 is no effect and 10 is complete control
[16] = Rate 62 g/ha, Postemergence, scale of 0 to 10 where 0 is no effect and 10 is complete control

## Cc1ccc(N(C(=O)n2oc(=O)n(-c3ccccc3C)c2=O)C(C)C)cc1 [Compound 40]
Wild oat; [1]
  Wild oats plant response rating: 0
Wild oat; [2]
  Wild oats plant response rating: 0
Wild oat; [3]
  Plant response rating, Wild oats: 0
Wild oat; [4]
  Plant response rating, Wild oats: 0
Wild oat; [5]
  Wild oats plant response rating: 5
Wild oat; [6]
  Wild oats plant response rating: 0
pigweed; [1]
  Redroot pigweed plant response rating: 0
pigweed; [2]
  Redroot pigweed plant response rating: 2
pigweed; [7]
  Plant response rating, Redroot pigweed: 0
pigweed; [3]
  Plant response rating, Redroot pigweed: 1
pigweed; [4]
  Plant response rating, Redroot pigweed: 4
pigweed; [5]
  Redroot pigweed plant response rating: 6
pigweed; [6]
  Redroot pigweed plant response rating: 1
Duck salad
  Ducksalad plant response rating: 0
morningglory; [1]
  Morningglory plant response rating: 3
morningglory; [2]
  Morningglory plant response rating: 6
morningglory; [7]
  Plant response rating, Morningglory: 0
morningglory; [3]
  Plant response rating, Morningglory: 0
morningglory; [4]
  Plant response rating, Morningglory: 0
morningglory; [5]
  Morningglory plant response rating: 0
morningglory; [6]
  Morningglory plant response rating: 6
morningglory; [8]
  Morningglory plant response rating: 7
Sugar beet; [1]
  Sugarbeets plant response rating: 0
Sugar beet; [2]
  Sugarbeets plant response rating: 2
Sugar beet; [7]
  Plant response rating, Sugarbeets: 0
Sugar beet; [3]
  Plant response rating, Sugarbeets: 0
Sugar beet; [4]
  Plant response rating, Sugarbeets: 0
Sugar beet; [5]
  Sugarbeets plant response rating: 6
Sugar beet; [6]
  Sugarbeets plant response rating: 0
soybean; [1]
  Soybean plant response rating: 3
soybean; [2]
  Soybean plant response rating: 4
soybean; [7]
  Plant response rating, Soybean: 0
soybean; [3]
  Plant response rating, Soybean: 0
soybean; [4]
  Plant response rating, Soybean: 0
soybean; [5]
  Soybean plant response rating: 0
soybean; [6]
  Soybean plant response rating: 3
Giant foxtail; [1]
  Giant foxtail plant response rating: 0
Giant foxtail; [2]
  Giant foxtail plant response rating: 1
Giant foxtail; [7]
  Plant response rating, Giant foxtail: 9
Giant foxtail; [3]
  Plant response rating, Giant foxtail: 9
Giant foxtail; [4]
  Plant response rating, Giant foxtail: 10
Giant foxtail; [5]
  Giant foxtail plant response rating: 10
Giant foxtail; [6]
  Giant foxtail plant response rating: 0
Giant foxtail; [8]
  Giant foxtail plant response rating: 3
blackgrass; [1]
  Blackgrass plant response rating: 0
blackgrass; [2]
  Blackgrass plant response rating: 4
blackgrass; [7]
  Plant response rating, Blackgrass: 0
blackgrass; [3]
  Plant response rating, Blackgrass: 0
blackgrass; [4]
  Plant response rating, Blackgrass: 1
blackgrass; [5]
  Blackgrass plant response rating: 6
blackgrass; [6]
  Blackgrass plant response rating: 0
blackgrass; [8]
  Blackgrass plant response rating: 7
bedstraw; [1]
  Bedstraw plant response rating: 0
bedstraw; [7]
  Plant response rating, Bedstraw: 0
bedstraw; [3]
  Plant response rating, Bedstraw: 0
bedstraw; [4]
  Plant response rating, Bedstraw: 0
bedstraw; [5]
  Bedstraw plant response rating: 0
bedstraw; [8]
  Bedstraw plant response rating: 2
crabgrass; [1]
  Crabgrass plant response rating: 0
crabgrass; [2]
  Crabgrass plant response rating: 6
crabgrass; [7]
  Plant response rating, Crabgrass: 2
crabgrass; [3]
  Plant response rating, Crabgrass: 4
crabgrass; [4]
  Plant response rating, Crabgrass: 7
crabgrass; [5]
  Crabgrass plant response rating: 10
crabgrass; [6]
  Crabgrass plant response rating: 1
crabgrass; [8]
  Crabgrass plant response rating: 7
Surinam grass; [1]
  B. signalgrass plant response rating: 0
Surinam grass; [2]
  B. signalgrass plant response rating: 0
Surinam grass; [7]
  Plant response rating, B. signalgrass: 0
Surinam grass; [3]
  Plant response rating, B. signalgrass: 0
Surinam grass; [4]
  Plant response rating, B. signalgrass: 5
Surinam grass; [5]
  B. signalgrass plant response rating: 7
Surinam grass; [6]
  B. signalgrass plant response rating: 0
Surinam grass; [8]
  B. signalgrass plant response rating: 0
Purple nutsedge; [1]
  Nutsedge plant response rating: 0
Purple nutsedge; [2]
  Nutsedge plant response rating: 0
Purple nutsedge; [7]
  Plant response rating, Nutsedge: 0
Purple nutsedge; [3]
  Plant response rating, Nutsedge: 0
Purple nutsedge; [4]
  Plant response rating, Nutsedge: 0
Purple nutsedge; [5]
  Nutsedge plant response rating: 0
Purple nutsedge; [6]
  Nutsedge plant response rating: 0
Purple nutsedge; [8]
  Nutsedge plant response rating: 0
cocklebur; [1]
  Cocklebur plant response rating: 0
cocklebur; [2]
  Cocklebur plant response rating: 0
cocklebur; [7]
  Plant response rating, Cocklebur: 0
cocklebur; [3]
  Plant response rating, Cocklebur: 0
cocklebur; [4]
  Plant response rating, Cocklebur: 0
cocklebur; [5]
  Cocklebur plant response rating: 0
cocklebur; [6]
  Cocklebur plant response rating: 0
cocklebur; [8]
  Cocklebur plant response rating: 0
corn; [1]
  Corn plant response rating: 0
corn; [2]
  Corn plant response rating: 0
corn; [7]
  Plant response rating, Corn: 0
corn; [3]
  Plant response rating, Corn: 0
corn; [4]
  Plant response rating, Corn: 0
corn; [5]
  Corn plant response rating: 0
corn; [6]
  Corn plant response rating: 0
corn; [8]
  Corn plant response rating: 0

## CC(C)N(C(=O)n1oc(=O)n([C@@H](C)c2ccccc2)c1=O)c1ccc(Cl)cc1 [Compound 174]
Wild oat; [9]
  Wild oats plant response rating: 0
Wild oat; [10]
  Wild oats plant response rating (0 to 10 scale): 0
Wild oat; [11]
  Wild oats plant response rating: 0
Wild oat; [12]
  Wild oats plant response rating: 0
Wild oat; [13]
  Plant response rating, Wild oats: 0
Wild oat; [14]
  Wild oats plant response rating: 0
pigweed; [15]
  Redroot pigweed plant response rating: 4
pigweed; [9]
  Redroot pigweed plant response rating: 0
pigweed; [10]
  Redroot pigweed plant response rating (0 to 10 scale): 6
pigweed; [11]
  Redroot pigweed plant response rating: 8
pigweed; [12]
  Redroot pigweed plant response rating: 9
pigweed; [16]
  Redroot pigweed plant response rating: 0
pigweed; [13]
  Plant response rating, Redroot pigweed: 6
pigweed; [14]
  Redroot pigweed plant response rating: 6
morningglory; [15]
  Morningglory plant response rating: 5
morningglory; [9]
  Morningglory plant response rating: 0
morningglory; [10]
  Morningglory plant response rating (0 to 10 scale): 0
morningglory; [11]
  Morningglory plant response rating: 0
morningglory; [12]
  Morningglory plant response rating: 0
morningglory; [16]
  Morningglory plant response rating: 3
morningglory; [13]
  Plant response rating, Morningglory: 5
morningglory; [14]
  Morningglory plant response rating: 5
Sugar beet; [15]
  Sugarbeets plant response rating: 0
Sugar beet; [9]
  Sugarbeets plant response rating: 3
Sugar beet; [10]
  Sugarbeets plant response rating (0 to 10 scale): 3
Sugar beet; [11]
  Sugarbeets plant response rating: 6
Sugar beet; [12]
  Sugarbeets plant response rating: 6
Sugar beet; [16]
  Sugarbeets plant response rating: 0
Sugar beet; [13]
  Plant response rating, Sugarbeets: 6
Sugar beet; [14]
  Sugarbeets plant response rating: 6
soybean; [15]
  Soybean plant response rating: 2
soybean; [9]
  Soybean plant response rating: 0
soybean; [10]
  Soybean plant response rating (0 to 10 scale): 0
soybean; [11]
  Soybean plant response rating: 0
soybean; [12]
  Soybean plant response rating: 0
soybean; [16]
  Soybean plant response rating: 2
soybean; [13]
  Plant response rating, Soybean: 2
soybean; [14]
  Soybean plant response rating: 4
Giant foxtail; [15]
  Giant foxtail plant response rating: 0
Giant foxtail; [9]
  Giant foxtail plant response rating: 8
Giant foxtail; [10]
  Giant foxtail plant response rating (0 to 10 scale): 9
Giant foxtail; [11]
  Giant foxtail plant response rating: 10
Giant foxtail; [12]
  Giant foxtail plant response rating: 10
Giant foxtail; [16]
  Giant foxtail plant response rating: 0
Giant foxtail; [13]
  Plant response rating, Giant foxtail: 0
Giant foxtail; [14]
  Giant foxtail plant response rating: 1
blackgrass; [15]
  Blackgrass plant response rating: 0
blackgrass; [9]
  Blackgrass plant response rating: 0
blackgrass; [10]
  Blackgrass plant response rating (0 to 10 scale): 2
blackgrass; [11]
  Blackgrass plant response rating: 2
blackgrass; [12]
  Blackgrass plant response rating: 2
blackgrass; [16]
  Blackgrass plant response rating: 0
blackgrass; [13]
  Plant response rating, Blackgrass: 0
blackgrass; [14]
  Blackgrass plant response rating: 3
bedstraw; [15]
  Bedstraw plant response rating: 4
bedstraw; [9]
  Bedstraw plant response rating: 0
bedstraw; [10]
  Bedstraw plant response rating (0 to 10 scale): 0
bedstraw; [12]
  Bedstraw plant response rating: 3
bedstraw; [16]
  Bedstraw plant response rating: 0
bedstraw; [13]
  Plant response rating, Bedstraw: 6
crabgrass; [15]
  Crabgrass plant response rating: 4
crabgrass; [9]
  Crabgrass plant response rating: 2
crabgrass; [10]
  Crabgrass plant response rating (0 to 10 scale): 8
crabgrass; [11]
  Crabgrass plant response rating: 8
crabgrass; [12]
  Crabgrass plant response rating: 10
crabgrass; [16]
  Crabgrass plant response rating: 2
crabgrass; [13]
  Plant response rating, Crabgrass: 7
crabgrass; [14]
  Crabgrass plant response rating: 8
Surinam grass; [15]
  B. signalgrass plant response rating: 0
Surinam grass; [9]
  B. signalgrass plant response rating: 0
Surinam grass; [10]
  B. signalgrass plant response rating (0 to 10 scale): 0
Surinam grass; [11]
  B. signalgrass plant response rating: 0
Surinam grass; [12]
  B. signalgrass plant response rating: 4
Surinam grass; [16]
  B. signalgrass plant response rating: 0
Surinam grass; [13]
  Plant response rating, B. signalgrass: 0
Surinam grass; Rate 500 g/ha, Postemergence, scale 0 to 10, 0 no effect, 10 complete control
  B. signalgrass plant response rating: 0
Purple nutsedge; [15]
  Nutsedge plant response rating: 0
Purple nutsedge; [9]
  Nutsedge plant response rating: 0
Purple nutsedge; [10]
  Nutsedge plant response rating (0 to 10 scale): 0
Purple nutsedge; [16]
  Nutsedge plant response rating: 0
Purple nutsedge; [13]
  Plant response rating, Nutsedge: 0
Purple nutsedge; [14]
  Nutsedge plant response rating: 0
cocklebur; [15]
  Cocklebur plant response rating: 1
cocklebur; [9]
  Cocklebur plant response rating: 0
cocklebur; [10]
  Cocklebur plant response rating (0 to 10 scale): 0
cocklebur; [11]
  Cocklebur plant response rating: 0
cocklebur; [12]
  Cocklebur plant response rating: 0
cocklebur; [16]
  Cocklebur plant response rating: 0
cocklebur; [13]
  Plant response rating, Cocklebur: 2
cocklebur; [14]
  Cocklebur plant response rating: 3
corn; [15]
  Corn plant response rating: 0
corn; [9]
  Corn plant response rating: 0
corn; [10]
  Corn plant response rating (0 to 10 scale): 0
corn; [11]
  Corn plant response rating: 0
corn; [12]
  Corn plant response rating: 0
corn; [16]
  Corn plant response rating: 0
corn; [13]
  Plant response rating, Corn: 0
corn; [14]
  Corn plant response rating: 0
